Values quoted from earlier work in US20110060000A1, “ACRIDINE ANALOGS IN THE TREATMENT OF GLIOMAS” (priority 2009, published 2011).

Tested on: gliomas
Settings: in association with established anti-glioma medications; cited from earlier work

SMILES: CCN(CC)CCCC(C)Nc1ccnc2cc(Cl)ccc12 (stereo not shown) [Chloroquine]
- patient survival: patient survival was significantly prolonged
